Where “and” joins values, the source holds several entries; their conditions need not be identical. Equal entries are not always repeated. Toxic doses and inconclusive results are not listed. No stated cut-off is given here; in the data, active means T/C of 150% or more; inactive means T/C below 125%.
Tested on: L1210 leukemia ip in BDF1 mice, survival T/C
Assay: NCI In Vivo Anticancer Drug Screen. Data for tumor model L1210 Leukemia (intraperitoneal) in B6D2F1 (BDF1) mice
Conditions: endpoint: mean survival time, higher = longer survival
Method in brief: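 Antitumor effect is assessed in tumor-bearing animals. Survival in the compound arm is compared with a vehicle-dosed control arm and expressed as their quotient.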

[1] = dose: 100.0 mg/kg/injection, schedule: Q01DX001 (ip), vehicle: saline
[2] = dose: 200.0 mg/kg/injection, schedule: Q01DX001 (ip), vehicle: saline
[3] = dose: 100.0 mg/kg/injection, schedule: Q01DX001 (ip), vehicle: carboxymethylcellulose (CMC)
[4] = dose: 200.0 mg/kg/injection, schedule: Q01DX001 (ip), vehicle: carboxymethylcellulose (CMC)
[5] = dose: 400.0 mg/kg/injection, schedule: Q01DX001 (ip), vehicle: carboxymethylcellulose (CMC)
[6] = dose: 100.0 mg/kg/injection, schedule: Q04DX003 (ip), vehicle: saline with Tween-80
[7] = dose: 200.0 mg/kg/injection, schedule: Q04DX003 (ip), vehicle: saline with Tween-80
[8] = dose: 100.0 mg/kg/injection, schedule: Q04DX003 (ip), vehicle: saline
[9] = dose: 50.0 mg/kg/injection, schedule: Q01DX001 (ip), vehicle: saline
[10] = dose: 200.0 mg/kg/injection, schedule: Q04DX003 (ip), vehicle: saline
[11] = dose: 400.0 mg/kg/injection, schedule: Q01DX001 (ip), vehicle: saline
[12] = dose: 400.0 mg/kg/injection, schedule: Q04DX003 (ip), vehicle: saline
[13] = dose: 100.0 mg/kg/injection, schedule: Q04DX002 (ip), vehicle: saline
[14] = dose: 200.0 mg/kg/injection, schedule: Q04DX002 (ip), vehicle: saline
[15] = dose: 100.0 mg/kg/injection, schedule: Q01DX009 (ip), vehicle: Klucel (hydroxypropylcellulose) (HPC)
[16] = dose: 200.0 mg/kg/injection, schedule: Q01DX009 (ip), vehicle: Klucel (hydroxypropylcellulose) (HPC)
[17] = dose: 100.0 mg/kg/injection, schedule: Q01DX009 (ip), vehicle: saline with Tween-80
[18] = dose: 400.0 mg/kg/injection, schedule: Q01DX009 (ip), vehicle: saline with Tween-80

Measured: T/C

COc1ccc(OC)c2c(C)cc(=O)[nH]c12
inactive: [1] 97 % of control | [2] 98 % of control

O=C(O)c1cc2ccccc2c2cc(Br)ccc12
inactive: dose: 100.0 mg/kg/injection, schedule: Q01DX009 (ip), vehicle: saline sonified 100 % of control | dose: 100.0 mg/kg/injection, schedule: Q04DX003 (ip), vehicle: Klucel (hydroxypropylcellulose) (HPC) 91 % of control | dose: 200.0 mg/kg/injection, schedule: Q01DX009 (ip), vehicle: saline sonified 97 % of control | dose: 200.0 mg/kg/injection, schedule: Q04DX003 (ip), vehicle: Klucel (hydroxypropylcellulose) (HPC) 108 % of control | dose: 400.0 mg/kg/injection, schedule: Q04DX003 (ip), vehicle: Klucel (hydroxypropylcellulose) (HPC) 103 % of control

CCOc1ccccc1/C=N/NC(=O)C(O)(c1ccccc1)c1ccccc1
inactive: [3] 101 % of control | [4] 101 % of control | [5] 97 % of control

C=CCNC(=O)Oc1cccc(NC(=O)OC)c1
inactive: [6] 107 % of control | [7] 108 % of control | dose: 400.0 mg/kg/injection, schedule: Q04DX003 (ip), vehicle: saline with Tween-80 105 % of control

Cc1cn(C2CCCCC2)c(=O)[nH]c1=O
inactive: dose: 25.0 mg/kg/injection, schedule: Q01DX Z (ip), vehicle: methylcellulose (MC) 89 % of control | dose: 50.0 mg/kg/injection, schedule: Q01DX Z (ip), vehicle: methylcellulose (MC) 92 % of control

C=C(C)[P+](C)(c1ccccc1)c1ccccc1
inactive: dose: 2.5 mg/kg/injection, schedule: Q01DX001 (ip), vehicle: saline 102 % of control | dose: 5.0 mg/kg/injection, schedule: Q01DX001 (ip), vehicle: saline 105 % of control

Cc1cccc(C)c1NC(=S)N(C)C
inactive: dose: 25.0 mg/kg/injection, schedule: Q01DX009 (ip), vehicle: saline 101 % of control | dose: 50.0 mg/kg/injection, schedule: Q01DX009 (ip), vehicle: saline 103 % of control | [8] 95 % of control

Nc1ccc2c(c1)sc1ccccc12
inactive: [6] 88 % of control | [7] 91 % of control

COc1ccc(/C=C2\N=C(c3ccccc3)OC2=O)cc1OC
inactive: [9] 105 % of control | [1] 109 % of control | [8] 96 % of control | [2] 105 % of control | [10] 100 % of control | [11] 100 % of control | [12] 96 % of control

Cn1cccc(C#N)c1=O (tested in a mixture with another compound)
inactive: [1] 103 % of control and 113 % of control | [13] 97 % of control and 110 % of control | [8] 97 % of control | [2] 106 % of control and 108 % of control | [14] 98 % of control and 113 % of control | [10] 103 % of control and 106 % of control | [11] 103 % of control and 105 % of control | dose: 400.0 mg/kg/injection, schedule: Q04DX002 (ip), vehicle: saline 100 % of control and 92 % of control | [12] 106 % of control and 91 % of control

C#CC(C)(O)c1ccccc1 (configuration not stated)
inactive: [15] 98 % of control | [16] 98 % of control

C[N+](C)(C)C(=O)c1ccccc1
inactive: [9] 104 % of control | [1] 101 % of control

COC(=O)C1=C(\O)CCCC/C=C\1C(=O)OC
inactive: dose: 100.0 mg/kg/injection, schedule: Q04DX002 (ip), vehicle: Klucel (hydroxypropylcellulose) (HPC) 87 % of control | dose: 200.0 mg/kg/injection, schedule: Q04DX002 (ip), vehicle: Klucel (hydroxypropylcellulose) (HPC) 97 % of control | dose: 400.0 mg/kg/injection, schedule: Q04DX002 (ip), vehicle: Klucel (hydroxypropylcellulose) (HPC) 107 % of control

CC1(C)SCC(C(=O)N2CCCC2C(=O)OC2CCCCC2)N1C=O (configuration not stated)
inactive: [8] 92 % of control | [12] 97 % of control

Cc1c2ccccc2c(CSCC(N)C(=O)O)c2ccc3ccccc3c12 (configuration not stated)
inactive: [17] 87 % of control | [18] 87 % of control

O=c1[nH]c2ccncc2c(=O)n1O
inactive: [15] 94 % of control | [16] 104 % of control | dose: 400.0 mg/kg/injection, schedule: Q01DX009 (ip), vehicle: Klucel (hydroxypropylcellulose) (HPC) 94 % of control

Nc1ccc2ncnn2c1
inactive: [1] 103 % of control | [2] 106 % of control | [11] 101 % of control

COc1ccc(C(=O)c2c(C(=O)O)ccc3ccccc23)cc1
inactive: [17] 104 % of control | dose: 100.0 mg/kg/injection, schedule: Q04DX003 (ip), vehicle: other 101 % of control | dose: 200.0 mg/kg/injection, schedule: Q01DX009 (ip), vehicle: saline with Tween-80 95 % of control | dose: 200.0 mg/kg/injection, schedule: Q04DX003 (ip), vehicle: other 100 % of control | [18] 106 % of control | dose: 400.0 mg/kg/injection, schedule: Q04DX003 (ip), vehicle: other 100 % of control

N#Cc1ccc([N+](=O)[O-])cc1O
inactive: dose: 50.0 mg/kg/injection, schedule: Q04DX003 (ip), vehicle: saline 96 % of control | [1] 98 % of control | [8] 95 % of control | [2] 104 % of control | [10] 96 % of control

CC1CCC(C(C)C)C(NCCO)C1 (configuration not stated)
inactive: dose: 18.8 mg/kg/injection, schedule: Q04DX003 (ip), vehicle: saline 102 % of control | dose: 37.5 mg/kg/injection, schedule: Q04DX003 (ip), vehicle: saline 100 % of control | dose: 75.0 mg/kg/injection, schedule: Q01DX001 (ip), vehicle: saline 103 % of control | dose: 75.0 mg/kg/injection, schedule: Q04DX003 (ip), vehicle: saline 100 % of control

O=C(OC1COC(OC(=O)c2ccc([N+](=O)[O-])cc2)C(OC(=O)c2ccc([N+](=O)[O-])cc2)C1OC(=O)c1ccc([N+](=O)[O-])cc1)c1ccc([N+](=O)[O-])cc1 (configuration not stated)
inactive: [1] 93 % of control | [2] 96 % of control | [11] 96 % of control

O=c1[nH]c2ccccc2nc1CBr
inactive: dose: 12.5 mg/kg/injection, schedule: Q04DX003 (ip), vehicle: saline with Tween-80 94 % of control | dose: 25.0 mg/kg/injection, schedule: Q04DX003 (ip), vehicle: saline with Tween-80 89 % of control | dose: 50.0 mg/kg/injection, schedule: Q04DX003 (ip), vehicle: saline with Tween-80 86 % of control

COc1cc2c(cc1O)C(CCc1cc(OC)c(OC)c(OC)c1)=NCC2
inactive: dose: 50.0 mg/kg/injection, schedule: Q04DX002 (ip), vehicle: saline 101 % of control | [13] 104 % of control | [14] 104 % of control

COC(=O)c1cc([N+](=O)[O-])ccc1Cl
inactive: dose: 100.0 mg/kg/injection, schedule: Q01DX009 (ip), vehicle: saline 87 % of control | [8] 98 % of control | dose: 200.0 mg/kg/injection, schedule: Q01DX009 (ip), vehicle: saline 95 % of control | [10] 97 % of control | dose: 400.0 mg/kg/injection, schedule: Q01DX009 (ip), vehicle: saline 101 % of control | [12] 95 % of control

O=P(OCCCCl)(OCCCCl)C(Cl)(Cl)Cl
inactive: [1] 102 % of control | [2] 101 % of control | [11] 101 % of control

CCOP(=O)(Nc1ccc2c(c1)/C(=N/NC(N)=S)c1ccccc1-2)OCC
inactive: dose: 50.0 mg/kg/injection, schedule: Q01DX001 (ip), vehicle: carboxymethylcellulose (CMC) 100 % of control | [3] 94 % of control | [4] 96 % of control | [5] 89 % of control
